Test results: patent publication US12576040B2, “Ionizable lipids and methods of manufacture and use thereof” (priority 2020, dated 2026)
Read-outs that look alike come from different tables or passages of the source.

Experiments:
[1] = type: physicochemical; conditions: LNP containing the ionizable lipid
Description: • A: Ribogreen Assay for mRNA Encapsulation Efficiency. 1×TE Buffer and Triton Buffer (2% v/v in 1×TE Buffer) were added in duplicates into a black microplate per LNP. LNPs were diluted to 4 ng/ul in 1×DPBS pH 7.4 and added to each TE/Triton well in a ratio 1:1. Two standard curves were included in the Ribogreen Assay, one containing mRNA and 1×TE Buffer and other containing mRNA and Triton Buffer. Each one of these standard curves were used to calculate the mRNA concentration in each TE Buffer or Triton Buffer. This approach using two standard curves is more accurate for calculating the encapsulation efficiency and mRNA concentrations, in comparison to a single standard curve. Standards were included in the microplate after diluted LNPs were added to the plate. Microplates were incubated at 37° C. for 10 minutes to extract LNPs with Triton. Ribogreen reagent was diluted 1:100 in 1×TE Buffer and added to each well in a ratio 1:1. Microplates were immediately introduced into the Cytation 5 Cell Imaging Multi-Mode Reader (Biotek) to read Fluorescence (Ex485/Em528). The results are illustrated in FIG. 34. • B: Dynamic Light Scattering for LNP Size (red dots are PDI right y axis). LNPs were diluted to 6.25 ng/ul in 1×DPBS pH 7.4 and transferred into a quartz cuvette (ZEN2112) to measure size by Dynamic Light Scattering (DLS) in the Zetasizer Nano ZS (Malvern Panalytical) using particle RI of 1.45 and Absorption of 0.001 in 1×PBS at 25° C. with viscosity of 1.02 cP and RI of 1.335. Measurements were made using a 173° Backscatter angle of detection previously equilibrated to 25° C. for 30 seconds in duplicates, each with 5 runs and 10 second run duration, without delay between measurements. […] Data was analyzed using a General-Purpose model with normal resolution. The results are illustrated in FIG. 35. • C: Zeta Potential for LNP charge, pKa and pI. LNPs were diluted in a 75 mM TNS Buffer (10 mM of each of glycylglycine, acetate, imidazole, 20 mM borate, 25 mM NaCl) to contain 0.8 mg of total mRNA in 800 ul of the TNS Buffer and transferred into a Folded Capillary Zeta Cell (DTS1070) to measure size by Dynamic Light Scattering (DLS) and electrophoretic mobility by Electrophoretic Light Scattering (ELS) in the Zetasizer Nano ZS (Malvern Panalytical). Zeta potential is measured under conditions of controlled voltage to limit ohmic heating in a solution with 4 buffers with pKas spread across the pH range 3-10 with 0.5 intervals. LNP pKa is calculated by fitting the Henderson Hasselbalch equation to zeta potential data. LNP pI is found by interpolating zeta potential to zero. We use electrokinetic models to calculate Henry's function and charge of the LNP. The results are illustrated in FIG. 36. • D: TNS Assay for LNP pKa. […] Fluorescence TNS is measured in a solution with 4 buffers with pKas spread across the pH range 3-10 with 0.5 intervals. The pKa of the LNP was measured using the pH-dependence of fluorescence enhancement of the anionic dye TNS, higher intensity at lower pH and lower at high pH. LNP pKa is calculated by fitting the Henderson Hasselbalch equation to fluorescence data from the TNS Assay. […]
LNP pKa was determined using the TNS assay. […] The Cytation 5 Cell Imaging Multi-Mode Reader (Biotek) was used to read Fluorescence (Ex321/Em445). The pH was measured in each well after TNS addition. […]

[2] = mRNA copies per LNP from molecular volume model and DLS diameter; type: physicochemical; conditions: average mRNA copies per LNP
Description: Exemplary ADDE ionizable lipids. pKas were obtained from ACDLabs Percepta for the ionizable lipid, and by zeta potential and TNS for LNPs containing the ionizable lipids. LNP isoelectric pI was obtained from the zeta potential. LNP diameter is number-average from DLS. Average mRNA copies per LNP was calculated using a molecular volume model and the DLS diameter and is proportional to LNP volume.
LNPs were diluted to 6.25 ng/μL total mRNA in PBS pH=7.4 and transferred into a quartz cuvette (ZEN2112) to measure size by Dynamic Light Scattering (DLS) in the Zetasizer Nano ZS (Malvern Panalytical) using particle RI of 1.45 and absorption of 0.001 in PBS at 25° C. with viscosity of 0.888 cP and RI of 1.335. Measurements were made using a 1730 backscatter angle of detection previously equilibrated to 25° C. for 30 seconds in duplicates, each with 5 runs and 10 second run duration, without delay between measurements. […] Data was analyzed using a General-Purpose model with normal resolution. Diameter are reported as the number-average that corresponds more closely to physical size seen in electron microscopy versus the zeta-average. A molecular volume model described previously was used to estimate the number of mRNA copies in the LNP using the number average diameter to calculate LNP volume. LNPs were diluted into the TNS buffer described above at pH ranging from 3-10 for zeta potential measurement by Electrophoretic Light Scattering (ELS) in the Zetasizer Nano ZP (Malvern Panalytical) using the same material and dispersant parameters described above and the Smoluchowski model. Each measurement had voltage set manually at 80 Volts to avoid ohmic heating that occurred if voltage was set automatically. Measurements in the disposable folded capillary cuvette with an automatic attenuation selection for photon counts were made in triplicates for 20 runs each, and 30 second delay between each replicate. Mathematica was used to fit zeta potential data to the data to the extended Henderson-Hasselbalch equation Ψ=Ψ_max−((Ψ_max−Ψ_min))/((1+10^(((pKa−pH))/n))) to provide the pKa, n and low pH and high pH zeta potential limits Ψ_max and Ψ_min, respectively. The extended model is used here, since the LNP pKa is ionization-state-dependent in a way similar to a polyelectrolyte. […] The isoelectric pI was the pH found by interpolating zeta potential to zero. Cryoelectron Microscopy

[3] = type: physicochemical; conditions: for pKa,ZP: LNP containing the ionizable lipid, Henderson Hasselbalch fit to zeta potential; for pI, ZP: LNP isoelectric pI from zeta potential
Description: (§1) • A: Ribogreen Assay for mRNA Encapsulation Efficiency. 1×TE Buffer and Triton Buffer (2% v/v in 1×TE Buffer) were added in duplicates into a black microplate per LNP. LNPs were diluted to 4 ng/ul in 1×DPBS pH 7.4 and added to each TE/Triton well in a ratio 1:1. Two standard curves were included in the Ribogreen Assay, one containing mRNA and 1×TE Buffer and other containing mRNA and Triton Buffer. Each one of these standard curves were used to calculate the mRNA concentration in each TE Buffer or Triton Buffer. This approach using two standard curves is more accurate for calculating the encapsulation efficiency and mRNA concentrations, in comparison to a single standard curve. Standards were included in the microplate after diluted LNPs were added to the plate. Microplates were incubated at 37° C. for 10 minutes to extract LNPs with Triton. Ribogreen reagent was diluted 1:100 in 1×TE Buffer and added to each well in a ratio 1:1. Microplates were immediately introduced into the Cytation 5 Cell Imaging Multi-Mode Reader (Biotek) to read Fluorescence (Ex485/Em528). The results are illustrated in FIG. 34. • B: Dynamic Light Scattering for LNP Size (red dots are PDI right y axis). LNPs were diluted to 6.25 ng/ul in 1×DPBS pH 7.4 and transferred into a quartz cuvette (ZEN2112) to measure size by Dynamic Light Scattering (DLS) in the Zetasizer Nano ZS (Malvern Panalytical) using particle RI of 1.45 and Absorption of 0.001 in 1×PBS at 25° C. with viscosity of 1.02 cP and RI of 1.335. Measurements were made using a 173° Backscatter angle of detection previously equilibrated to 25° C. for 30 seconds in duplicates, each with 5 runs and 10 second run duration, without delay between measurements. […] Data was analyzed using a General-Purpose model with normal resolution. The results are illustrated in FIG. 35. • C: Zeta Potential for LNP charge, pKa and pI. LNPs were diluted in a 75 mM TNS Buffer (10 mM of each of glycylglycine, acetate, imidazole, 20 mM borate, 25 mM NaCl) to contain 0.8 mg of total mRNA in 800 ul of the TNS Buffer and transferred into a Folded Capillary Zeta Cell (DTS1070) to measure size by Dynamic Light Scattering (DLS) and electrophoretic mobility by Electrophoretic Light Scattering (ELS) in the Zetasizer Nano ZS (Malvern Panalytical). Zeta potential is measured under conditions of controlled voltage to limit ohmic heating in a solution with 4 buffers with pKas spread across the pH range 3-10 with 0.5 intervals. LNP pKa is calculated by fitting the Henderson Hasselbalch equation to zeta potential data. LNP pI is found by interpolating zeta potential to zero. We use electrokinetic models to calculate Henry's function and charge of the LNP. The results are illustrated in FIG. 36. • D: TNS Assay for LNP pKa. LNPs were diluted to keep a final concentration of 75 uM of the ionizable lipid and 6 uM of TNS in a 75 mM TNS Buffer (10 mM of each of glycylglycine, acetate, imidazole, 20 mM borate, 25 mM NaCl) in order to keep a ratio TNS/ionizable of 0.08. Fluorescence TNS is measured in a solution with 4 buffers with pKas spread across the pH range 3-10 with 0.5 intervals. The pKa of the LNP was measured using the pH-dependence of fluorescence enhancement of the anionic dye TNS, higher intensity at lower pH and lower at high pH. LNP pKa is calculated by fitting the Henderson Hasselbalch equation to fluorescence data from the TNS Assay. The results are illustrated in FIG. 37.
LNPs were diluted to 6.25 ng/μL total mRNA in PBS pH=7.4 and transferred into a quartz cuvette (ZEN2112) to measure size by Dynamic Light Scattering (DLS) in the Zetasizer Nano ZS (Malvern Panalytical) using particle RI of 1.45 and absorption of 0.001 in PBS at 25° C. with viscosity of 0.888 cP and RI of 1.335. Measurements were made using a 1730 backscatter angle of detection previously equilibrated to 25° C. for 30 seconds in duplicates, each with 5 runs and 10 second run duration, without delay between measurements. […]

[4] = Dynamic Light Scattering for LNP size; type: physicochemical; conditions: number-average from DLS
Description: as §1, with “37. […]” for “37.”

[5] = type: physicochemical; conditions: Table 11a
Description: In certain embodiments, the pKa of the Ionizable Lipids of the Invention included in the LNP is measured by fluorescent enhancement of an anionic lipophilic dye TNS binding to the LNP containing the ionizable lipid. Prior studies have shown that the TNS pKa needs to be near 6.5 for efficient delivery to liver upon IV administration. The pKa in the aqueous phase can be predicted by software such ACDLabs Percepta, resulting in pKas that are higher than the TNS pKa. Given the importance of the LNP pKa in determining their efficiency, we developed new methods (zeta potential, ^1H NMR, modeling) to link the intrinsic pKa of the ionizable lipid to LNP ionization properties, in order to rationally design effective systems for mRNA delivery.
In certain embodiments, the hydrophilic DMG-PEG forms the shell of the LNP. The amount of nucleic acid is represented by the NP mole ratio of the amine on the ionizable lipid to the phosphate groups on the nucleic acid backbone and is typically 3-6. In certain embodiments, the pKa of the LNP to be in the 6-7 range corresponding to the pH in the early endosome. […] The pKa of the LNP was measured using the pH-dependence of fluorescence enhancement of the anionic dye TNS. In certain embodiments, the pKa-dependent endosomal release mechanism was described as an ion-pairing event between the cationic protonated ionizable lipid and anionic endosomal phospholipids where a divergent cone-shape lipid tail of the ionizable lipid facilitates membrane rupture.

[6] = Table 11a; known ionizable lipids, LNP pKa; cited from earlier work

**Q.** With CCCCC/C=C\C/C=C\CCCCCCCCOC(=O)CCN(CCC(=O)OCCCCCCCC/C=C\C/C=C\CCCCC)CCN(C)C (racemic) [DL-C2/C2-DMA] as the molecule, how does the “pKa, TNS” value [1] read?
**A.** Its value is 8.0.

**Q.** And the mRNA copies [2]?
**A.** The mRNA copies was 1.1.

**Q.** What about the “pKa,ZP” value [3] of the same molecule?
**A.** Its value is 6.9.

**Q.** And the “pI, ZP” value [3]?
**A.** The value was 7.1.

**Q.** What about the “Diameter (nm)” value [4] of the same molecule?
**A.** The value was 40 nm.

**Q.** For CCCCC/C=C\C/C=C\CCCCCCCCOC(=O)CCN(CCC(=O)OCCCCCCCC/C=C\C/C=C\CCCCC)CCN1CCN(C)CC1 (racemic) [DL-C2/C2-PipZ], which “pKa, TNS” value [1] is on record?
**A.** Its value is 7.8.

**Q.** And the mRNA copies [2]?
**A.** Its mRNA copies is 4.3.

**Q.** What about the “pKa,ZP” value [3] of the same molecule?
**A.** The value was 6.2.

**Q.** What about the “pI, ZP” value [3] of the same molecule?
**A.** The value was 7.6.

**Q.** And the “Diameter (nm)” value [4]?
**A.** Its value is 64 nm.

**Q.** What does the source list for CCCCC/C=C\C/C=C\CCCCCCCCOC(=O)CCN(CCC(=O)OCCCCCCCC/C=C\C/C=C\CCCCC)CCN1CCCC1 (racemic) [DL-C2/C2-Pyr]?
**A.** pKa, TNS [1]: 7.9; mRNA copies [2]: 1.5; pKa,ZP [3]: 6.8; pI, ZP [3]: 7.2; Diameter (nm) [4]: 48 nm

**Q.** With CCCCCCCC(=O)N(CCCN1CCCC1)C(CCCCCCCCC(=O)OC(CCCC)CCCCCC)CCCCCCCCC(=O)OC(CCCC)CCCCCC (centres unmarked) [Acuitas Compound 15] as the molecule, how does the “ΔpKa = Classic-Galas” value [5] read?
**A.** Its value is 3.38.

**Q.** What about the “ΔpKa = Classic-TNS” value [5] of the same molecule?
**A.** Its value is 3.98.

**Q.** What about the “pKa, TNS” value [6] of the same molecule?
**A.** Its value is 6.32.

**Q.** With CCCCCCCCCCC(CCCCCCCC)COC(=O)CCN(CCC(=O)OCC(CCCCCCCC)CCCCCCCCCC)CCN1CCN(C)CC1 (centres unmarked) [BODD-C2/C2-PipZ] as the molecule, how does the “pKa, TNS” value [1] read?
**A.** Its value is 6.6.

**Q.** And the mRNA copies [2]?
**A.** The mRNA copies was 1.9.

**Q.** And the “pKa,ZP” value [3]?
**A.** Its value is 5.4.

**Q.** And the “pI, ZP” value [3]?
**A.** The value was 5.9.

**Q.** And the “Diameter (nm)” value [4]?
**A.** The value was 49 nm.
